From article PMC11513842, “Development of an orally bioavailable CDK12/13 degrader and induction of synthetic lethality with AKT pathway inhibition” (Cell Reports Medicine, 2024)
Several values for one entry are separate records, joined by “and”; a condition that tells them apart may be missing. Equal values may be shown once. Read-outs that look alike come from different tables or passages of the source.

How the values were obtained:
[1] = system: VCaP cells; test: Cell viability assay (CellTiter-Glo, 5 days); assay type: cell-based, human
Method: (§1) Cells were seeded in 96-well plates and incubated at 37°C with 5% CO2 overnight. A series of compound dilutions were added into the cells. After 5 days incubation, cell proliferation was tested using the CellTiter-Glo assay (Promega) according to the manufacturer’s protocol. Luminescence was measured using the Infinite M1000 Pro plate reader (Tecan). Data analysis was conducted using GraphPad Prism software.

[2] = system: 22RV1; test: Cell viability assay (CellTiter-Glo, 5 days); assay type: cell-based; conditions: Homo sapiens, 120 h; 22RV1, 5 days of treatment, Figure 1F
Method: as §1

[3] = system: BPH-1; test: Cell viability assay (CellTiter-Glo, 5 days); assay type: cell-based; conditions: Homo sapiens, 120 h; BPH-1, 5 days of treatment, Figure 1F
Method: as §1

[4] = system: CWR22RV1; test: Cell viability assay (CellTiter-Glo, 5 days); assay type: cell-based; conditions: Homo sapiens, 120 h; CWR22RV1, 5 days of treatment, Figure 1F
Method: as §1

[5] = system: DU145; test: Cell viability assay (CellTiter-Glo, 5 days); assay type: cell-based; conditions: Homo sapiens, DU-145, 120 h; DU145, 5 days of treatment, Figure 1F
Method: as §1

[6] = system: LAPC4; test: Cell viability assay (CellTiter-Glo, 5 days); assay type: cell-based; conditions: Homo sapiens, 120 h; LAPC4, 5 days of treatment, Figure 1F
Method: as §1

[7] = system: MCF10A; test: Cell viability assay (CellTiter-Glo, 5 days); assay type: cell-based; conditions: Homo sapiens, MCF-10A, 120 h, 5 days of treatment, Figure 1F
Method: as §1

[8] = system: MCF12A; test: Cell viability assay (CellTiter-Glo, 5 days); assay type: cell-based; conditions: Homo sapiens, MCF-12A, 120 h, 5 days of treatment, Figure 1F
Method: as §1

[9] = system: MCF7; test: Cell viability assay (CellTiter-Glo, 5 days); assay type: cell-based; conditions: Homo sapiens, 120 h; MCF7, 5 days of treatment, Figure 1F
Method: as §1

[10] = system: MDA-MB-468; test: Cell viability assay (CellTiter-Glo, 5 days); assay type: cell-based; conditions: Homo sapiens, 120 h; MDA-MB-468, 5 days of treatment, Figure 1F
Method: as §1

[11] = system: MFM223; test: Cell viability assay (CellTiter-Glo, 5 days); assay type: cell-based; conditions: Homo sapiens, MFM-223, 120 h; MFM223, 5 days of treatment, Figure 1F
Method: as §1

[12] = system: PC3; test: Cell viability assay (CellTiter-Glo, 5 days); assay type: cell-based; conditions: Homo sapiens, PC-3, 120 h; PC3, 5 days of treatment, Figure 1F
Method: as §1

[13] = system: PNT2; test: Cell viability assay (CellTiter-Glo, 5 days); assay type: cell-based; conditions: Homo sapiens, 120 h; PNT2, 5 days of treatment, Figure 1F
Method: as §1

[14] = system: PrEC; test: Cell viability assay (CellTiter-Glo, 5 days); assay type: cell-based; conditions: Homo sapiens, 120 h, 5 days of treatment, Figure 1F
Method: as §1

[15] = system: RWPE1; test: Cell viability assay (CellTiter-Glo, 5 days); assay type: cell-based; conditions: Homo sapiens, RWPE-1, 120 h; RWPE1, 5 days of treatment, Figure 1F
Method: as §1

[16] = system: SK-BR-3; test: Cell viability assay (CellTiter-Glo, 5 days); assay type: cell-based; conditions: Homo sapiens, 120 h; SK-BR-3, 5 days of treatment, Figure 1F
Method: as §1

[17] = system: WPMY-1; test: Cell viability assay (CellTiter-Glo, 5 days); assay type: cell-based; conditions: Homo sapiens, 120 h; WPMY-1, 5 days of treatment, Figure 1F
Method: as §1

[18] = system: VCaP cells; test: Comet assay; assay type: cell-based, human; conditions: 100 nM, 12 h
Method: VCaP cells were seeded in 6-well plates one day prior to treatment. […] After 12 h incubation, the cells were trypsinized and resuspended at a concentration of 1 × 10^5 cells/mL in ice-cold PBS. The OxiSelect Comet Assay Kit (Cell Biolabs, STA-351) was used to assess DNA damage. Following the manufacturer’s protocol, cells were combined with pre-heated comet agarose at a 1:10 ratio, mixed thoroughly, and then transferred onto slides. The slides were incubated horizontally in the dark at 4°C for 20 min. Afterward, they were immersed in pre-chilled lysis buffer for 40 min at 4°C in the dark, followed by a 30-min incubation in pre-chilled alkaline solution at 4°C in the dark. Electrophoresis was then performed using alkaline solution at 30 V for 20 min. After electrophoresis, the slides were rinsed three times with pre-chilled deionized water, following with 70% ethanol for 5 min and completely dried at 37°C for 30 min. Subsequently, 100 μL of diluted Vista Green DNA dye was applied to each well. After 15 min incubation at room temperature, the comets were observed using a fluorescence microscope and quantified using ImageJ. The quantification figure was generated using GraphPad Prism software.

[19] = system: CDK12 and CDK13; conditions: VCaP cells
Method: After treatment of varying conditions, cell lysates were prepared using RIPA buffer (ThermoFisher Scientific) supplemented with cOmplete protease inhibitor cocktail tablets (Sigma-Aldrich). The Pierce BCA Protein Assay Kit ([…]) was used to determine the protein concentrations. Proteins with an equal amount from each sample were loaded on NuPAGE 3–8% Tris-Acetate or 4–12% Bis-Tris protein gels (ThermoFisher Scientific) and subsequently transferred to membranes, which were blocked using 5% nonfat milk. Following blocking at room temperature for 1 h, the membrane was further incubated with varying primary antibodies at 4°C overnight. HRP-conjugated secondary antibodies were used for detection, and membrane imaging was conducted using an Odyssey Fc Imager (LI-COR Biosciences).

[20] = Pharmacokinetic profile in Sprague Dawley rats; assay type: in vivo, rat; conditions: SD rats
[21] = VCaP cell viability, linker optimization, Figure S4B, read-out: VCaP IC50

With `CN(C)C/C=C/C(=O)Nc1ccc(C(=O)N2CCC[C@@H](Nc3ncc(Cl)c(-c4c[nH]c5ccccc45)n3)C2)cc1` [THZ531, reference compound] as the compound, how does the IC50 ([1]; Homo sapiens, VCaP, 120 h, VCaP, 5 days of treatment, Figure 1F, read-out: IC50) read?
The IC50 was 33.5 nM.

What about the IC50 [2] of the same compound?
The IC50 was 85.7 nM.

And the IC50 [3]?
Its IC50 is 356 nM.

What about the IC50 [4] of the same compound?
Its IC50 is 69.7 nM.

And the IC50 [5]?
The IC50 was 230 nM.

What about the IC50 [6] of the same compound?
The IC50 was 6.38 nM.

And the IC50 [7]?
The IC50 was 396 nM.

What about the IC50 [8] of the same compound?
Its IC50 is 310 nM.

And the IC50 [9]?
Its IC50 is 356 nM.

What about the IC50 [10] of the same compound?
The IC50 was 158 nM.

What about the IC50 [11] of the same compound?
Its IC50 is 33.3 nM.

What about the IC50 [12] of the same compound?
Its IC50 is 120 nM.

And the IC50 [13]?
The IC50 was 1530 nM.

What about the IC50 [14] of the same compound?
Its IC50 is 335 nM.

What about the IC50 [15] of the same compound?
The IC50 was 404 nM.

And the IC50 [16]?
Its IC50 is 64.8 nM.

What about the IC50 [17] of the same compound?
Its IC50 is 311 nM.

What about the “DNA damage (tail moment)” value [18] of the same compound?
Its value is “significant increase in the tail moment”.

For `CN1C(=O)CCC(N2C(=O)c3cccc(OCC(=O)N4CCN(c5ccc(N(C(=O)NCc6ccccc6)C6CCC(Nc7ncc8ccccc8n7)CC6)cc5)CC4)c3C2=O)C1=O` (stereo not drawn) [YJ1078], which IC50 ([1]; VCaP cells, 5 days, Figure S1E, read-out: IC50) is on record?
Its IC50 is > 3000 nM.

What about the “CDK12/13 degradation (immunoblot)” value [19] of the same compound?
Its value is “did not affect target protein levels”.

What does the source list for `O=C1CCC(N2C(=O)c3ccc(OCC(=O)N4CCN(c5ccc(N(C(=O)NCc6ccccc6)C6CCC(Nc7ncc8ccccc8n7)CC6)cc5)CC4)cc3C2=O)C(=O)N1` (stereo not drawn) [YJ1090]?
IC50 [1, 21]: 93.8 nM; CDK12/13 degradation (immunoblot) [19]: retained the CDK12/13 degradation abilities

Which IC50 [1, 21] does the source give for `O=C1CCC(N2Cc3ccc(OCC(=O)N4CCN(c5ccc(N(C(=O)NCc6ccccc6)C6CCC(Nc7ncc8ccccc8n7)CC6)cc5)CC4)cc3C2=O)C(=O)N1` (stereo not drawn) [YJ1094] here?
Its IC50 is 25.2 nM.

What about the “CDK12/13 degradation (immunoblot)” value [19] of the same compound?
Its value is “retained the CDK12/13 degradation abilities”.

Which results are given for `O=C1CCC(N2C(=O)c3ccc(N4CCC(N5CCN(c6ccc(N(C(=O)NCc7ccccc7)C7CCC(Nc8ncc9ccccc9n8)CC7)cc6)CC5)C4)cc3C2=O)C(=O)N1` (stereo not drawn) [YJ1096]?
IC50 [1, 21]: 97.8 nM; CDK12/13 degradation (immunoblot) [19]: significantly decreased CDK12/13 degradation and cell viability

Which IC50 [1, 21] does the source give for `O=C1CCC(N2C(=O)c3ccc(N4CCC(N5CCN(c6ccc(N(C(=O)NCc7ccccc7)C7CCC(Nc8ncc9ccccc9n8)CC7)cc6)CC5)CC4)cc3C2=O)C(=O)N1` (stereo not drawn) [YJ1105] here?
Its IC50 is 15.1 nM and < 20 nM.

And the “CDK12/13 degradation (immunoblot)” value [19]?
The value was “potent degradation effects”.

And the “AUC(0-t)” value ([20]; i.v. 2.5 mg/kg)?
Its value is 8039.69 ng·h/mL.

What about the CL ([20]; i.v. 2.5 mg/kg) of the same compound?
The CL was 288.16 mL/h/kg.

And the Cmax ([20]; i.v. 2.5 mg/kg)?
Its Cmax is 1580 nM.

And the T1/2 ([20]; i.v. 2.5 mg/kg)?
Its T1/2 is 7.05 h.

What about the Tmax ([20]; i.v. 2.5 mg/kg) of the same compound?
The Tmax was 0.08 h.

What about the “AUC(0-)” value ([20]; oral 10 mg/kg) of the same compound?
The value was 9805.4 ng·h/mL.

What about the “AUC(0-t)” value ([20]; oral 10 mg/kg) of the same compound?
The value was 8567.43 ng·h/mL.

What about the Cmax ([20]; oral 10 mg/kg) of the same compound?
The Cmax was 715 nM.

And the T1/2 ([20]; oral 10 mg/kg)?
The T1/2 was 7.2 h.

What about the Tmax ([20]; oral 10 mg/kg) of the same compound?
The Tmax was 6 h.

What about the “F(%) (bioavailability by oral gavage)” value ([20]; oral 10 mg/kg vs i.v. 2.5 mg/kg) of the same compound?
Its value is 26.64%.
